Reference: patent US20240271102A1, “METHODS FOR ENGINEERING AND USE OF CILIATED ORGANOIDS HAVING NATIVE-LIKE, APICAL-OUT POLARITY” (Carnegie Mellon University, priority 2021, published 2024)

How the values were obtained:
Format in all cases: cell-based, human
[1] = system: apical-out airway organoids (AOAOs); experiment: AOAO rotation / angular velocity of […]-embedded organoids (computer vision tracking)
Experimental: © embedding of AOAOs: Mature AOAOs at day-21 to day-28 of differentiation were collected together and embedded in […]® matrices. For […]® embedding, collected AOAOs were resuspended in 40% (vol/vol) GFR-[…]® in differentiation medium, which was kept on a heat plate set to 37° C. for 10 minutes to enable effective gelation. Upon matrix gelation, differentiation medium was added to the top of the AOAO-containing gel matrices. All matrix-embedded AOAOs were maintained at 37° C. with 5% CO2. The next day, 30-second video recordings of AOAOs were captured using EVOS FL Auto 2 Imaging System. […] The distance covered by each correspondence was measured and converted to the rotational velocity (Sun et al., in 2010 IEEE Computer Society Conference on Computer Vision and Pattern Recognition, 2432-2439, 2010). […] The difference in rotational and angular velocity was quantified by calculating the mean normalized deviation of velocity (rotational and angular) from the mean (FIG. 19E) using the following equation: Treating AOAOs with Paclitaxel or EHNA for angular velocity analysis: Mature AOAOs (day-21 to day-28 of differentiation) were embedded in […]® for two days before treatment with desired chemical inhibitors of cilia motility. […]

[2] = system: apical-out airway organoids (AOAOs); experiment: Cilia beating frequency (CBF) by kymograph analysis
Experimental: Imaging the AOAO cilia beating for kymographs generation and cilia beating frequency (CBF) calculation: Mature AOAOs (day-21 to day-28 of differentiation) were transferred to a 1.5-mL Eppendorf tube and kept on ice. Cold collagen type 1 was neutralized with the neutralization solution, added to the organoids at a final concentration of 2 mg/mL, and the entire AOAO-collagen mixture was transferred to the glass bottom region of a MatTek dish. The MatTek dish containing organoids in collagen was kept on ice for additional 10 minutes until the organoids settled down to the bottom of the dish. The MatTek dish was then placed on a heat plate set to 37° C. for 10 minutes. 1 mL of differentiation medium was placed in the dish before capturing video recording of cilia beating using on a Zeiss AxioObserver Z1 microscope with a 100×, 1.45 NA objective and pco.edge 5.5 camera. The high-speed video recordings of cilia beating were preprocessed using the previously described method to smoothen noise and variations in contrast. Additionally, the Contrast Limited Adaptive Histogram Equalization (CLAHE) function in Python v. […] The normal vector with respect to the organoid surface for each region of interest was calculated. […] The peaks in the kymograph were counted and divided by the duration of the video to obtain the CBF value for the organoid. […]

[3] = system: NHBE cells; experiment: Spheroid formation of NHBEs on U-bottom cell repellent surface; settings: 10 μM Y27632 in differentiation medium at initial seeding, day 1
Experimental: Mucociliary differentiation of NHBEs with apical-out polarity was then carried out. Once the cells reached about 75% confluency, the medium was aspirated and cells were rinsed once with DPBS. Trypsin-EDTA (0.25%) was added and incubated at 37° C. After all the cells had lifted, complete RPMI medium was added to neutralize the trypsin. The cell suspension was transferred into a 15 mL centrifuge tube, which was then centrifuged at 220×g for 5 minutes at room temperature. The cell pellet was resuspended to a cell density of 5000 cells/mL in differentiation medium containing 10 μM of Y27632. Aliquots (100 μL) of the cell suspension were then transferred to each well of a 96-well cell-repellent microplate. 50 μL of the media were pipetted out from each well and replaced with fresh differentiation medium every other day. Apical-out organoid formation was examined with different starting NHBE cell numbers (1000, 500, 200, 100, 50, and 20 cells per well) on a 96-well U-bottom cell repellent surface. Studies also were conducted to test whether the addition of 10 μM Y27632 into the differentiation medium for initial seeding improved cell viability and spheroid formation (FIGS. 3A-3F and 4A-4F). […] It is noted that in other experiments, however, a density of 1000 cells per well did support favorable spheroid formation.

[4] = system: apical-out airway organoids (AOAOs); experiment: MUC5AC goblet cell immunofluorescence staining of apical-out airway organoids
Experimental: Differentiation of airway basal cells into apical-out airway organoids: Human ABSCs (P2) were trypsinized and resuspended (5000 cells/ml) in differentiation medium ([…]™-ALI Medium) supplemented with 10 μM Y27632. 100 μL of resuspended hABSCs were placed per well in a 96-well cell-repellent microplate (GreinerBio-One, 655970). The cultures were maintained at 37° C. with 5% CO2 for 21-28 days. […]

## CCCCCC[C@@H]([C@@H](C)O)n1cnc2c(N)ncnc21 (racemic) [EHNA, erythro-9-(2-hydroxy-3-nonyl)adenine]
[1]; EHNA 0, 0.1, 0.3 and 1 mM, 2 hours, mature AOAOs
  change in organoid angular velocity: dose-dependent reduction in organoid angular velocity
[2]; 1 mM EHNA, 2 hours
  cilia beating frequency (CBF): inhibitory effect

## C[C@@H](N)[C@H]1CC[C@H](C(=O)Nc2ccncc2)CC1 [Y27632]
[3]
  spheroid formation with versus without Y27632: no significant differences

## CC(=O)O[C@H]1C(=O)[C@@]2(C)[C@H]([C@H](OC(=O)c3ccccc3)[C@]3(O)C[C@H](OC(=O)[C@H](O)[C@@H](NC(=O)c4ccccc4)c4ccccc4)C(C)=C1C3(C)C)[C@]1(OC(C)=O)CO[C@@H]1C[C@@H]2O [paclitaxel, Paclitaxel]
[1]; paclitaxel 20 μM, monitored periodically for 24 hours
  organoid angular velocity over time: progressive reduction of organoid angular velocity
[2]; paclitaxel 20 μM, 24 hours
  cilia beating frequency (CBF): dramatically reduced CBF

## IL-13: pro-inflammatory cytokine interleukin-13
[4]; IL-13 5 ng/mL in differentiation medium during the entire differentiation
  goblet cells (MUC5AC+) in Day 21 AOAOs: massive induction of goblet cells
[4]; IL-13 at concentration as low as 1 ng/mL
  goblet cells (MUC5AC expression): exhibited goblet cells
